From ChEMBL document CHEMBL4177641, “Identification of an allosteric benzothiazolopyrimidone inhibitor of the oncogenic protein tyrosine phosphatase SHP2” (Bioorg Med Chem, 2017)
Where a chain is given by its changes, count along the chain named. Calls of active or inactive are those of the source. The calls are words filed in the database; no cut-off is given here.

How the values were obtained:
[1] = system: T1, Tyrosine-protein phosphatase non-receptor type 11 (Homo sapiens), Q06124 [F285S]; assay: Inhibition of SHP2 F285S mutant (1 to 525 residues) (unknown origin) expressed in Escherichia coli BL21(DE3) at up to 2 uM using DIFMUP as substrate preincubated for 30 mins followed by substrate addition by fluorescence assay
T1 sequence (whole entry): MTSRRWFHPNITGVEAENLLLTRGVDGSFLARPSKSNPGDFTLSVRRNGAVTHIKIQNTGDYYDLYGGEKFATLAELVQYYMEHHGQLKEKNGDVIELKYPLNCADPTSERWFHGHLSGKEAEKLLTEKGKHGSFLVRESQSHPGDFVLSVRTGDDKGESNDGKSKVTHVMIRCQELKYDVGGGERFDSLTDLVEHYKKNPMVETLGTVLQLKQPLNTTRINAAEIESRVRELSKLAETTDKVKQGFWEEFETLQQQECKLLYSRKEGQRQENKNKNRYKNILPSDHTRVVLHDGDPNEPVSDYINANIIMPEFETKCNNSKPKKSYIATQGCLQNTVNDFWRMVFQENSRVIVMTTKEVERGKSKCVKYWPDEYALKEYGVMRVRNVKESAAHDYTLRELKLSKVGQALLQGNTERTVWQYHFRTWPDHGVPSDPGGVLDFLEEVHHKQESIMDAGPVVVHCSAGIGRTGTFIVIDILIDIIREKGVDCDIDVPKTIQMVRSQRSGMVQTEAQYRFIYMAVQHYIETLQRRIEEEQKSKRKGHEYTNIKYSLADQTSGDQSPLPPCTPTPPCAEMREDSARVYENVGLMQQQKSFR

MOLM-14 = assay: Antiproliferative activity against human MOLM14 cells after 3 days by CellTiter-Glo luminescence assay; format: functional, cell-based; settings: for IC50: MOLM-14, 72 h
A2058 = assay: Antiproliferative activity against human A2058 cells harboring BRAF V600E mutation at up to 2 uM after 3 days by CellTiter-Glo luminescence assay; format: functional, cell-based
[2] = target: T2, Tyrosine-protein phosphatase non-receptor type 11 (Homo sapiens) (UniProt Q06124); assay: Inhibition of wild-type SHP2 (1 to 525 residues) (unknown origin) expressed in Escherichia coli BL21(DE3) using DIFMUP as substrate preincubated for 30 mins followed by substrate addition by fluorescence assay
T2 sequence (whole entry): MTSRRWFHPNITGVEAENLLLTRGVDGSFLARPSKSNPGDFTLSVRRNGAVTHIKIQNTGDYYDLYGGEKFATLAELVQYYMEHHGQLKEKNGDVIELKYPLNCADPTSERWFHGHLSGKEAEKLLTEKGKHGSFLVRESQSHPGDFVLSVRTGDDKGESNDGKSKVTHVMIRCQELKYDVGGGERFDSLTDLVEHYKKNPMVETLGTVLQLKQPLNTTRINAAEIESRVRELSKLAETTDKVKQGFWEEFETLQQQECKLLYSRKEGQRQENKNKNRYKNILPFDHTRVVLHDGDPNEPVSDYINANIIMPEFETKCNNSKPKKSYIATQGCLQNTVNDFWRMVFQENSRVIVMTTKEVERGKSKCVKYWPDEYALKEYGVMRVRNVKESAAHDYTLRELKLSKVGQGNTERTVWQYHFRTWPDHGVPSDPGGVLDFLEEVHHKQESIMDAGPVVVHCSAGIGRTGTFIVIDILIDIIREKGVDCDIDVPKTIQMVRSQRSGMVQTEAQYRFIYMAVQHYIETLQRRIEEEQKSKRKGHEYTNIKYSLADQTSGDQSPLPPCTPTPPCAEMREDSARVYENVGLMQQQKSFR

[3] = target: T2, Tyrosine-protein phosphatase non-receptor type 11 (Homo sapiens); assay: Inhibition of SHP2 in human MOLM14 cells assessed as reduction in phospho-Erk levels at up to 400 uM after 2 hrs by Western blot analysis; format: cell-based
[4] = system: T1, Tyrosine-protein phosphatase non-receptor type 11 (Homo sapiens), Q06124 [F285S]; assay: (§1) Inhibition of SHP2 F285S mutant (1 to 525 residues) (unknown origin) expressed in Escherichia coli BL21(DE3) using DIFMUP as substrate preincubated for 30 mins followed by substrate addition by fluorescence assay
[5] = target: Tyrosine-protein phosphatase non-receptor type 11 (Homo sapiens, UniProt Q06124, F285S); assay: as §1
[6] = system: T3, Tyrosine-protein phosphatase non-receptor type 11 (Homo sapiens), Q06124 [F285S,T253M,Q257L]; assay: Inhibition of SHP2 F285S/T253M/Q257L mutant (1 to 525 residues) (unknown origin) expressed in Escherichia coli BL21(DE3) using DIFMUP as substrate preincubated for 30 mins followed by substrate addition by fluorescence assay
T3 sequence (whole entry): T1 sequence (whole entry) with T253M, Q257L

[7] = target: T2, Tyrosine-protein phosphatase non-receptor type 11 (Homo sapiens); assay: Inhibition of SHP2 PTP domain (1 to 525 residues) (unknown origin) expressed in Escherichia coli BL21(DE3) using DIFMUP as substrate preincubated for 30 mins followed by substrate addition by fluorescence assay

Row | Compound | inhibition [1] | Activity (A2058) | IC50 (MOLM-14) | other results
1 | COc1ccc2c(c1)sc1nc(Cl)c(Cc3ccccc3)c(=O)n12 | inactive | inactive |  | Activity (MOLM-14): inactive
2 | O=c1c(Cc2ccccc2)c(O)nc2sc3cc(Cl)ccc3n12 | 60% | inactive | 85 µM | inhibition [2]: Active; inhibition [3]: inactive
3 | COc1ccc2c(c1)sc1nc(O)c(Cc3ccccc3)c(=O)n12 | 40% |  |  | inhibition [4]: Dose-dependent effect; IC50 [5]: 10 µM; inhibition [6]: inactive; inhibition [7]: inactive
4 | CC1(N)CCN(c2cnc(-c3cccc(Cl)c3Cl)c(N)n2)CC1 |  | inactive | 0.9 µM | 
5 | NCc1ccc2c(c1)sc1nc(O)c(Cc3ccccc3)c(=O)n12 |  | inactive |  | 
